Laboratory results published in patent US20200385371A1 (Propellon Therapeutics Inc., priority 2017, published 2020).
Where two headings read alike, the source gives them in different places.

Key:
[1] = system: MV4-11 cells; assay: Cell proliferation assay (ATPlite); assay type: cell-based; settings: Homo sapiens; for EC50: 120 h, MV4-11 cells, five days, read-out: GI MV411 EC50; for IC50: MV4-11, Table 2
Experimental: MV4-11 cells were seeded into a 96-well plate at 1,000 cells/well in 150 μl medium (Alpha-MEM containing 10% FBS, 100 μg/ml Normocin, and 50 μg/ml Gentamycin, Invitrogen). A HP D300 digital dispenser was used to dose cells with DMSO or test compounds across a 10-point range of concentrations (high dose of 10 μM), and cultures were grown in a humidified 5% CO2 incubator at 37° C. After five days, plates were removed from incubator and equilibrated to room temperature. An equal volume of ATPlite assay reagent was added to each well, and samples were processed according to manufacturer's instructions (Perkin Elmer). Luminescent signal was measured using an Envision plate reader equipped with a US-Luminescence detector.

[2] = molecular target: T1, WDR5 (Homo sapiens, UniProt P61964); assay: Surface Plasmon Resonance (SPR) assay; assay type: binding; design: Full length WDR5 with an N-terminal His tag and C-terminal AviTag; His tag (N); made in house; host or cells: E. coli
Experimental: Exemplary compounds of the application were dissolved in 100% DMSO at 10 mM, assayed fresh, and then stored at −20° C. for repeat studies and other experiments. Full length WDR5 with an N-terminal His tag and C-terminal AviTag (Avidity Inc.) was expressed in E. coli with coexpression of BirA to biotin label the protein in vivo. Purification was via Ni-NTA.
SPR studies were performed using a Biacore™ T200 instrument (GE Health Sciences Inc.). Biotinylated WDR5 protein (approximately 3000RU) was stably captured to streptavidin coupled SA chips according to the manufacture's protocol (GE Health Sciences Inc.). The running buffer used was HBS-EP (20 mM Hepes pH 7.4, 150 mM NaCl, 3 mM EDTA, 0.05% P-20) plus 5% DMSO with a flow rate of 40 μl/min. For SPR analysis, 5 different concentrations of each exemplary compound of the application were sprayed into 96 or 384 well plates using an HP D300 digital dispenser. The concentration ranged from about 195 nM to about 12 nM in a two-fold series. […] Curve fitting and KD calculations were performed with the Biacore T200 Evalutation software (GE Health Sciences Inc).

[3] = molecular target: T1, WDR5; assay: Fluorescence Polarization (FP) binding assay
Experimental: H3 (1-15) ([…]), and 9-Ala-FAM ((Ac)-[…]-(Ahx-Ahx)-K(5,6-FAM)) (where Ahx represents 6 amino hexanoic acid linkers) peptides for WDR5 were synthesized, N-terminal-labeled with isothiocyanate-fluorescein, and purified by Tufts University Core Services (Boston, Mass.). Compound binding assays were performed at a constant labeled peptide concentration of 30 or 20 nM for H3 (1-15) and 9-Ala-FAM respectively. WDR5 concentrations of 0.3 μM for H3 (1-15) and 0.05 μM for 9-Ala-FAM were used. For both the H3 (1-15) and 9-Ala-FAM peptides, 80 mM sodium phosphate buffer (pH 6.5), 20 mM KCl, and 0.008% Triton X-100 was used. For the H3 (1-15) peptide, FP assays were measured in 10 μl aliquots in 384-well Axygen plates using a Synergy 4 microplate reader (BioTek) with an excitation wavelength of 485 nm and emission wavelength of 528 nm. For the 9-Ala-FAM peptide, FP assays were measured in 125 μl aliquots in 96 well Microfluor plates using a ViewLux instrument (Perkin Elmer) with an excitation wavelength of 480 nm and emission wavelength of 540 nm. To determine Kdsp values, the data were fit to a hyperbolic function using Sigma Plot software (Systat Software). The Kdisp values represent the average of quadruplicate measurements.

Row | SMILES | EC50 [1] [nM] | Kd ([2]; read-out: SPR Kd) [nM] | IC50 [3] [nM] | IC50 [1] [nM] | Kd ([2]; Table 2, effect of difluoro substitution, read-out: KD (SPR)) [nM]
1 | COc1cc(N2CC=C(c3c(F)cc(N4C[C@@H](C)N(C)[C@@H](C)C4)c(NC(=O)c4c[nH]c(=O)cc4C(F)(F)F)c3F)C2)ncn1 [Example 143, N-(2,4-difluoro-3-(1-(6-methoxypyrimidin-4-yl)-2,5-dihydro-1H-pyrrol-3-yl)-6-((3S,5R)-3,4,5-trimethylpiperazin-1-yl)phenyl)-6-oxo-4-(trifluoromethyl)-1,6-dihydropyridine-3-carboxamide] | 17.7 | 0.92 | 14.4 |  | 
2 | CC(C)OC(=O)N1CC=C(c2c(F)cc(N3CCN(C)[C@@H](C)C3)c(NC(=O)c3c[nH]c(=O)cc3C(F)(F)F)c2F)CC1 [Example 39, Isopropyl (S)-4-(4-(3,4-dimethylpiperazin-1-yl)-2,6-difluoro-3-(6-oxo-4-(trifluoromethyl)-1,6-dihydropyridine-3-carboxamido)phenyl)-3,6-dihydropyridine-1(2H)-carboxylate] | 35.4 | 1.58 | 15.2 |  | 
3 | C[C@H]1CN(c2cc(F)c(C3=CCN(c4ncc(F)cn4)CC3)c(F)c2NC(=O)c2c[nH]c(=O)cc2C(F)F)CCN1C [Example 81, (S)-4-(difluoromethyl)-N-(6-(3,4-dimethylpiperazin-1-yl)-2,4-difluoro-3-(1-(5-fluoropyrimidin-2-yl)-1,2,3,6-tetrahydropyridin-4-yl)phenyl)-6-oxo-1,6-dihydropyridine-3-carboxamide] | 44 | 1.37 | 12.5 |  | 
4 | C[C@H]1CN(c2cc(F)c(C3=CCCN(c4ncc(C#N)s4)C3)c(F)c2NC(=O)c2c[nH]c(=O)cc2C(F)F)CCN1C [Example 99, (S)—N-(3-(1-(5-cyanothiazol-2-yl)-1,2,5,6-tetrahydropyridin-3-yl)-6-(3,4-dimethylpiperazin-1-yl)-2,4-difluorophenyl)-4-(difluoromethyl)-6-oxo-1,6-dihydropyridine-3-carboxamide] | 169 | 1.62 | 14.7 |  | 
5 | C[C@@H]1CN(c2ccc(-c3c(F)cc(N4CCN(C)[C@@H](C)C4)c(NC(=O)c4ccc(F)cc4C(F)(F)F)c3F)cn2)C[C@H](C)O1 [Example 176, N-(3-(6-((2S,6R)-2,6-dimethylmorpholino)pyridin-3-yl)-6-((S)-3,4-dimethylpiperazin-1-yl)-2,4-difluorophenyl)-4-fluoro-2-(trifluoromethyl)benzamide] | 139 | 1.46 | 19.8 |  | 
6 | CC(C)OC(=O)N1CC=C(c2c(F)cc(N3CCN(C)[C@@H](C)C3)c(NC(=O)c3c[nH]c(=O)cc3C(F)F)c2F)C1 [Example 36, Isopropyl (S)-3-(3-(4-(difluoromethyl)-6-oxo-1,6-dihydropyridine-3-carboxamido)-4-(3,4-dimethylpiperazin-1-yl)-2,6-difluorophenyl)-2,5-dihydro-H-pyrrole-1-carboxylate] | 54.5 | 1.04 | 13.2 |  | 
7 | C[C@H]1CN(c2cc(F)c(C3=CCN(c4ccnc(C#N)n4)C3)c(F)c2NC(=O)c2c[nH]c(=O)cc2C(F)(F)F)CCN1C [Example 107, (S)—N-(3-(1-(2-cyanopyrimidin-4-yl)-2,5-dihydro-1H-pyrrol-3-yl)-6-(3,4-dimethylpiperazin-1-yl)-2,4-difluorophenyl)-6-oxo-4-(trifluoromethyl)-1,6-dihydropyridine-3-carboxamide] | 60.1 | 2.62 | 14.3 |  | 
8 | C[C@@H]1CN(c2nccc(-c3c(F)cc(N4C[C@@H](C)N(C)[C@@H](C)C4)c(NC(=O)c4c[nH]c(=O)cc4C(F)(F)F)c3F)n2)C[C@H](C)O1 [Example 77, N-(3-(2-((2S,6R)-2,6-dimethylmorpholino)pyrimidin-4-yl)-2,4-difluoro-6-((3S,5R)-3,4,5-trimethylpiperazin-1-yl)phenyl)-6-oxo-4-(trifluoromethyl)-1,6-dihydropyridine-3-carboxamide] | 108 | 1.12 | 10.1 |  | 
9 | C[C@@H]1CN(c2ccc(-c3c(F)cc(N4C[C@@H](C)N(C)[C@@H](C)C4)c(NC(=O)c4c[nH]c(=O)cc4C(F)F)c3F)cn2)CCO1 [Example 190, N-(2,4-difluoro-3-(6-((R)-2-methylmorpholino)pyridin-3-yl)-6-((3S,5R)-3,4,5-trimethylpiperazin-1-yl)phenyl)-4-(difluoromethyl)-6-oxo-1,6-dihydropyridine-3-carboxamide] | 48.6 | 0.96 | 12.8 |  | 

The next lines start with the values.

Row | EC50 [1] [nM] | Kd ([2]; read-out: SPR Kd) [nM] | IC50 [3] [nM] | IC50 [1] [nM] | Kd ([2]; Table 2, effect of difluoro substitution, read-out: KD (SPR)) [nM] | SMILES
10 | 30.1 | 3.68 | 16.3 |  |  | C[C@@H]1CN(c2cc(F)c(-c3cnc(N4CCOCC4)nc3)c(F)c2NC(=O)c2c[nH]c(=O)cc2C(F)(F)F)C[C@H](C)N1C [Example 2, N-(2,4-difluoro-3-(2-morpholinopyrimidin-5-yl)-6-((3S,5R)-3,4,5-trimethylpiperazin-1-yl)phenyl)-6-oxo-4-(trifluoromethyl)-1,6-dihydropyridine-3-carboxamide]
11 | 11.8 | 6.17 | 21 |  |  | C[C@@H]1CN(c2cc(F)c(-c3cnc(N4CCO[C@@H](C)C4)nc3)c(F)c2NC(=O)c2c[nH]c(=O)cc2C(F)(F)F)C[C@H](C)N1C [Example 101, N-(2,4-difluoro-3-(2-((S)-2-methylmorpholino)pyrimidin-5-yl)-6-((3S,5R)-3,4,5-trimethylpiperazin-1-yl)phenyl)-6-oxo-4-(trifluoromethyl)-1,6-dihydropyridine-3-carboxamide]
12 | 11.8 | 0.56 | 11.8 |  |  | C[C@H]1CN(c2ncc(-c3c(F)cc(N4CCN(C)[C@@H](C)C4)c(NC(=O)c4c[nH]c(=O)cc4C(F)F)c3F)cn2)CCO1 [Example 126, 4-(Difluoromethyl)-N-(6-((S)-3,4-dimethylpiperazin-1-yl)-2,4-difluoro-3-(2-((S)-2-methylmorpholino)pyrimidin-5-yl)phenyl)-6-oxo-1,6-dihydropyridine-3-carboxamide]
13 | 18.5 | 1.65 | 12 |  |  | COc1cnc(N2CC=C(c3c(F)cc(N4C[C@@H](C)N(C)[C@@H](C)C4)c(NC(=O)c4c[nH]c(=O)cc4C(F)(F)F)c3F)C2)nc1 [Example 139, N-(2,4-difluoro-3-(1-(5-methoxypyrimidin-2-yl)-2,5-dihydro-1H-pyrrol-3-yl)-6-((3S,5R)-3,4,5-trimethylpiperazin-1-yl)phenyl)-6-oxo-4-(trifluoromethyl)-1,6-dihydropyridine-3-carboxamide]
14 | 10.2 | 0.69 | 11.7 |  |  | C[C@@H]1CN(c2ncc(-c3c(F)cc(N4CCN(C)[C@@H](C)C4)c(NC(=O)c4c[nH]c(=O)cc4C(F)(F)F)c3F)cn2)CCO1 [Example 127, N-(6-((S)-3,4-dimethylpiperazin-1-yl)-2,4-difluoro-3-(2-((R)-2-methylmorpholino)pyrimidin-5-yl)phenyl)-6-oxo-4-(trifluoromethyl)-1,6-dihydropyridine-3-carboxamide]
15 |  |  |  | 25 |  | C[C@@H]1CN(c2cc(F)c(-c3cnc(N4CCOCC4)nc3)cc2NC(=O)c2c[nH]c(=O)cc2C(F)(F)F)C[C@H](C)N1C [reference compound]
16 |  |  |  | 3540 | 77 | C[C@@H]1CN(c2c(F)cc(-c3cnc(N4CCOCC4)nc3)cc2NC(=O)c2c[nH]c(=O)cc2C(F)(F)F)C[C@H](C)N1C [reference compound]
